Measurements published in ChEMBL document CHEMBL1201862, “PubChem BioAssay data set” (2004).
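48-hour exposure; five concentrations; linearly interpolated endpoints. The concentration for 50% growth inhibition is given as GI50.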 Calls of active or inactive are those of the source. No stated cut-off is given here; in the data, active = GI50 up to about 1.1 µM and inactive = higher.

How the values were obtained:
Assay in all cases: NCI-60 cell line screen, 48 h
Malme-3M = test system: Malme-3M
786-0 = test system: 786-0
ACHN = test system: ACHN
HCT-116 = test system: HCT-116
UACC-62 = test system: UACC-62
OVCAR-4 = test system: OVCAR-4
M14 = test system: M14
DU-145 = test system: DU-145
A498 = test system: A498
EKVX = test system: EKVX
NCI/ADR-RES = test system: NCI/ADR-RES
K562 = test system: K562
SF-268 = test system: SF-268
KM12 = test system: KM12
A549 = test system: A549
NCI-H226 = test system: NCI-H226
RPMI-8226 = test system: RPMI-8226
SNB-75 = test system: SNB-75
HCC 2998 = test system: HCC 2998
HL-60 = test system: HL-60

| SMILES | GI50 (Malme-3M) | GI50 (786-0) | GI50 (ACHN) | GI50 (HCT-116) | GI50 (UACC-62) | GI50 (OVCAR-4) | GI50 (M14) | GI50 (DU-145) | GI50 (A498) | GI50 (EKVX) | GI50 (NCI/ADR-RES) | GI50 (K562) | GI50 (SF-268) | GI50 (KM12) | GI50 (A549) | GI50 (NCI-H226) | GI50 (RPMI-8226) | GI50 (SNB-75) | GI50 (HCC 2998) | GI50 (HL-60) |
| --- | --- | --- | --- | --- | --- | --- | --- | --- | --- | --- | --- | --- | --- | --- | --- | --- | --- | --- | --- | --- |
| Cn1c(=O)c2nc(CCCc3ccc([N+](=O)[O-])cc3)[nH]c2n(C)c1=O | > 100 µM (inactive) | > 100 µM (inactive) | > 100 µM (inactive) | > 100 µM (inactive) | > 100 µM (inactive) | > 100 µM (inactive) | > 100 µM (inactive) | > 100 µM (inactive) | > 100 µM (inactive) | > 100 µM (inactive) | > 100 µM (inactive) | 31.2 µM (inactive) | > 100 µM (inactive) | > 100 µM (inactive) | > 100 µM (inactive) | > 100 µM (inactive) | > 100 µM (inactive) | > 100 µM (inactive) | – | – |
| O=C1c2cc(Cl)ccc2N=C(NC2CCCC2)C2CSCN12 (stereo not drawn) | > 100 µM (inactive) | > 100 µM (inactive) | > 100 µM (inactive) | > 100 µM (inactive) | > 100 µM (inactive) | > 100 µM (inactive) | 91.2 µM (inactive) | > 100 µM (inactive) | 68.9 µM (inactive) | 46.6 µM (inactive) | > 100 µM (inactive) | 59.2 µM (inactive) | 66.5 µM (inactive) | 35.7 µM (inactive) | > 100 µM (inactive) | 60 µM (inactive) | 87.5 µM (inactive) | 52.7 µM (inactive) | > 100 µM (inactive) | – |
| O=C(c1ccc(Cl)c(Cl)c1)N(C(=S)OC12CC3CC(CC(C3)C1)C2)c1ccccc1 | 34.9 µM (inactive) | 30.3 µM (inactive) | 34.8 µM (inactive) | 24.8 µM (inactive) | 25.1 µM (inactive) | 38.2 µM (inactive) | 20.8 µM (inactive) | 83.2 µM (inactive) | 37.1 µM (inactive) | 20.8 µM (inactive) | 30.1 µM (inactive) | 17.1 µM (inactive) | 40.4 µM (inactive) | 33.7 µM (inactive) | 32.2 µM (inactive) | 31.2 µM (inactive) | – | 93.1 µM (inactive) | 43.3 µM (inactive) | 15.8 µM (inactive) |
| CC1=C(C#N)C(C#N)(C#N)C(NN(C)C)C1 (stereo not drawn) | 17.7 µM (inactive) | 8.99 µM (inactive) | 13.3 µM (inactive) | 11 µM (inactive) | 15.9 µM (inactive) | 30.7 µM (inactive) | 29 µM (inactive) | 15.7 µM (inactive) | 20.9 µM (inactive) | 14 µM (inactive) | 23.8 µM (inactive) | 12.2 µM (inactive) | 21.7 µM (inactive) | 16.6 µM (inactive) | 41.5 µM (inactive) | – | 10.9 µM (inactive) | 21.4 µM (inactive) | 17.2 µM (inactive) | 3.59 µM (inactive) |
| COc1cccc(C23CCCC(C2)NCC3Br)c1OC (stereo not drawn) | > 100 µM (inactive) | 81.3 µM (inactive) | 21 µM (inactive) | 30.8 µM (inactive) | 21.4 µM (inactive) | 35 µM (inactive) | 34.4 µM (inactive) | 53.8 µM (inactive) | 15.4 µM (inactive) | 28.4 µM (inactive) | 31.1 µM (inactive) | 21.5 µM (inactive) | 23 µM (inactive) | 35.1 µM (inactive) | 3.66 µM (inactive) | 0.154 µM (active) | 19.2 µM (inactive) | 28.1 µM (inactive) | – | – |
| CCOP(=O)(/C=C/n1cc(C)c(=O)[nH]c1=O)OCC | – | > 100 µM (inactive) | > 100 µM (inactive) | > 100 µM (inactive) | > 100 µM (inactive) | > 100 µM (inactive) | > 100 µM (inactive) | > 100 µM (inactive) | > 100 µM (inactive) | > 100 µM (inactive) | > 100 µM (inactive) | > 100 µM (inactive) | > 100 µM (inactive) | > 100 µM (inactive) | > 100 µM (inactive) | > 100 µM (inactive) | > 100 µM (inactive) | > 100 µM (inactive) | – | > 100 µM (inactive) |
| Nc1nc(N)c2cc(CNc3ccc(C(=O)NC(CC(=O)O)C(=O)O)c(Cl)c3)ccc2n1 (stereo not drawn) | 0.383 µM (active) | 0.0736 µM (active) | 0.0253 µM (active) | < 0.01 µM (active) | 0.0893 µM (active) | 153 µM (inactive) | 0.0743 µM (active) | 0.0501 µM (active) | 0.171 µM (active) | – | < 0.0282 µM (active) | < 0.0192 µM (active) | 0.0582 µM (active) | 0.0796 µM (active) | 0.0346 µM (active) | > 21.6 µM (inactive) | – | > 20.8 µM (inactive) | 1.43 µM (inactive) | 14.3 µM (inactive) |
| CCN(CCO)CC1CCCC2CCCCC21 (stereo not drawn) | > 100 µM (inactive) | > 100 µM (inactive) | > 100 µM (inactive) | > 100 µM (inactive) | > 100 µM (inactive) | > 100 µM (inactive) | > 100 µM (inactive) | > 100 µM (inactive) | > 100 µM (inactive) | > 100 µM (inactive) | > 100 µM (inactive) | 46.5 µM (inactive) | > 100 µM (inactive) | > 100 µM (inactive) | > 100 µM (inactive) | > 100 µM (inactive) | > 100 µM (inactive) | > 100 µM (inactive) | > 100 µM (inactive) | – |
| COCC12CCC(OC)C34C5CC6(O)C(OC)C=C(C5C6OC(=O)c5ccccc5)C(C(OC)C13)C4N(C)C2 (stereo not drawn) | > 100 µM (inactive) | > 100 µM (inactive) | > 100 µM (inactive) | > 100 µM (inactive) | > 100 µM (inactive) | > 100 µM (inactive) | > 100 µM (inactive) | > 100 µM (inactive) | > 100 µM (inactive) | > 100 µM (inactive) | > 100 µM (inactive) | – | > 100 µM (inactive) | > 100 µM (inactive) | > 100 µM (inactive) | – | > 100 µM (inactive) | 32.1 µM (inactive) | > 100 µM (inactive) | > 100 µM (inactive) |
| Cc1cc2nc(N3C(=O)/C(=C/c4ccc(Cl)cc4)N=C3c3ccccc3)sc2cc1C | – | 29.4 µM (inactive) | 37.7 µM (inactive) | 18.4 µM (inactive) | 30.8 µM (inactive) | 20 µM (inactive) | 32.7 µM (inactive) | 50.8 µM (inactive) | 32.9 µM (inactive) | 24.4 µM (inactive) | 23.2 µM (inactive) | 32.4 µM (inactive) | 30 µM (inactive) | 16.3 µM (inactive) | 30 µM (inactive) | – | 35.9 µM (inactive) | 22.3 µM (inactive) | 24.2 µM (inactive) | 21.6 µM (inactive) |
| O=C(c1ccccc1)c1ccc(N2C(=O)/C(=C/c3cccc([N+](=O)[O-])c3)N=C2c2ccccc2)c(N2C(=O)/C(=C/c3cccc([N+](=O)[O-])c3)N=C2c2ccccc2)c1 | – | 79.1 µM (inactive) | 53.2 µM (inactive) | 39.4 µM (inactive) | 20.8 µM (inactive) | 34.6 µM (inactive) | 14.4 µM (inactive) | 51.9 µM (inactive) | 19.3 µM (inactive) | > 100 µM (inactive) | 25.1 µM (inactive) | 31.7 µM (inactive) | 62.5 µM (inactive) | 11 µM (inactive) | 11 µM (inactive) | – | 12.8 µM (inactive) | 15.1 µM (inactive) | 15 µM (inactive) | 0.759 µM (active) |
| CCC(CCCN)Nc1cc(OC)cc2cccnc12 (stereo not drawn) | 38.7 µM (inactive) | > 100 µM (inactive) | > 100 µM (inactive) | > 100 µM (inactive) | 46.3 µM (inactive) | 90.2 µM (inactive) | 41.3 µM (inactive) | > 100 µM (inactive) | > 100 µM (inactive) | > 100 µM (inactive) | > 100 µM (inactive) | 57 µM (inactive) | > 100 µM (inactive) | > 100 µM (inactive) | > 100 µM (inactive) | > 100 µM (inactive) | – | 31.1 µM (inactive) | 22.7 µM (inactive) | 21.9 µM (inactive) |
| O=C(CC1(O)C(=O)Nc2c(Cl)cc(Cl)cc21)c1cccc([N+](=O)[O-])c1 (stereo not drawn) | 19.4 µM (inactive) | 22.2 µM (inactive) | 23 µM (inactive) | 19.8 µM (inactive) | 18.8 µM (inactive) | 14.4 µM (inactive) | 22.8 µM (inactive) | > 100 µM (inactive) | 27.9 µM (inactive) | 52.5 µM (inactive) | 29 µM (inactive) | 19.8 µM (inactive) | 44.4 µM (inactive) | 24.5 µM (inactive) | 39.5 µM (inactive) | 31.6 µM (inactive) | 28.2 µM (inactive) | 15.2 µM (inactive) | > 45.2 µM (inactive) | – |
| O=[N+]([O-])c1cc2ccc1OCc1cccc(n1)COc1ccc(cc1[N+](=O)[O-])/C=N\CCCCCCCC/N=C\2 | > 100 µM (inactive) | > 100 µM (inactive) | > 100 µM (inactive) | > 100 µM (inactive) | > 100 µM (inactive) | > 100 µM (inactive) | > 100 µM (inactive) | > 100 µM (inactive) | > 100 µM (inactive) | > 100 µM (inactive) | > 100 µM (inactive) | > 100 µM (inactive) | > 100 µM (inactive) | > 100 µM (inactive) | > 100 µM (inactive) | > 100 µM (inactive) | > 100 µM (inactive) | > 100 µM (inactive) | > 100 µM (inactive) | – |
| COc1cccc(/N=N/C(=N/NC(=O)c2cc(Cl)ccc2O)c2ccc(N(CCC#N)CCC#N)cc2C)c1 | 17.5 µM (inactive) | 43.3 µM (inactive) | 46.3 µM (inactive) | 18.8 µM (inactive) | 44.6 µM (inactive) | 19.8 µM (inactive) | 42.3 µM (inactive) | 43.4 µM (inactive) | 26.4 µM (inactive) | 20.3 µM (inactive) | 49 µM (inactive) | 21.3 µM (inactive) | 47.1 µM (inactive) | 28.5 µM (inactive) | 62.1 µM (inactive) | 26.2 µM (inactive) | 61.2 µM (inactive) | 21.4 µM (inactive) | 23.6 µM (inactive) | – |
